Source: US10266482B2, “Long-term memory inducing agent” (NATIONAL UNIVERSITY CORPORATION TOKYO MEDICAL AND DENTAL …, priority 2017, dated 2019)

How the values were obtained:
young crickets [1] = assay: Olfactory associative learning test in young crickets (single-time training, memory a day after); format: in vivo, Gryllus bimaculatus; conditions: for long-term memory formation a day after the training: 3 μl to the brain
Description: Male crickets about one week old (young) or three week old (aged) following molting into adult forms were used. Each of the crickets was placed into a 100 ml beaker three days before the experiment, and deprived of water for 2-3 days to enhance the desire of taking water. As the feed, about 10 pieces of insect feed were placed into the beaker.
A 1-ml syringe was used for smell and reward associative conditioning upon learning/training. The syringe contained water as the reward while a piece of paper (3 mm×3 mm) perfumed with peppermint essence was pierced into the needle to about 1 cm from the tip thereof. In this learning/training, the filter paper on the needle was brought near the antennae of the cricket to allow it to smell for 3 seconds and then a drop of water was put out from the tip of the needle and applied to the mouth of the cricket. When the associative conditioning was conducted for four times, the conditionings were conducted at intervals of 5 minutes.
Smell preference was examined by placing each cricket into a test arena. The arena consisted of a “standby chamber” and a “test chamber”. The floor of the “test chamber” had two holes each with a diameter of 4 cm which were communicated with two smell sources. The smell source was a plastic pot containing filter paper perfumed with essence of a smell (peppermint or vanilla) and covered with a gauze lid. In the preference test, each cricket was placed into the test chamber and allowed to walk freely for 4 minutes to search for the two smell sources. Two minutes after the start of the test, a rotary board having the smell sources was rotated to reverse the positions of the vanilla and the peppermint smells. During the test, the time the cricket spent placing its mouth to the gauze of the smell source was measured as a visiting time to the smell source, and the ratio of the visiting times of the two types of smells (PI value: preference index) was calculated according to the following formula to assess the relative preference to the mint smell. PI value=Tp/(Tp+Tv)×100 • Tp: Searching time for smell associated with the reward (peppermint) • Tv: Searching time for smell not associated with the reward (vanilla)
If the preferences for the two smells are equivalent, PI will be 50. Since crickets inherently prefer vanilla smell over peppermint smell, an average PI value prior to the learning/training is usually 25-35, The preference test was conducted before and after the learning/training to examine whether preference for the smell changes due to the learning/training.
As drugs, melatonin, N(1)-acetyl-N(2)-formyl-5-methoxykynuramine (AFMK), N(1)-acetyl-5-methoxykynuramine (AMK), 6-Hydroxymelatonin (6-HM), L-kynurenine, kynuramine, 8-Bromoguanoine 3′,5′-cyclic monophosphate sodium salt (8 br-cGMP) and cycloheximide (CHX) were used. Melatonin, 6-HM, kynurenine, kynuramine and 8br-cGMP were purchased from SIGMA Aldrich, AFMK was purchased from Cayman Chemical, AMK was purchased from Toronto Research Chemicals and CHX was purchased from Wako Pure Chemical Industries. The drugs other than 8br-cGMP and CHX were first dissolved in ethanol and then diluted with physiological saline for crickets to the respective concentrations. In the administration experiment, 3 μl was administered using a 10-μl syringe to the brain via an aperture opened through a simple eye of the head.
PI values were tested before the training and a day after the training in the same group by a Wilcoxon's-test.

aged crickets = assay: Olfactory associative learning test in aged crickets (age-related memory disorder, training four times); format: in vivo, Gryllus bimaculatus; conditions: 500 μM, 3 μl, 20 minutes before training for four times
Description: Male crickets about one week old (young) or three week old (aged) following molting into adult forms were used. Each of the crickets was placed into a 100 ml beaker three days before the experiment, and deprived of water for 2-3 days to enhance the desire of taking water. As the feed, about 10 pieces of insect feed were placed into the beaker. A 1-ml syringe was used for smell and reward associative conditioning upon learning/training. The syringe contained water as the reward while a piece of paper (3 mm×3 mm) perfumed with peppermint essence was pierced into the needle to about 1 cm from the tip thereof. In this learning/training, the filter paper on the needle was brought near the antennae of the cricket to allow it to smell for 3 seconds and then a drop of water was put out from the tip of the needle and applied to the mouth of the cricket. When the associative conditioning was conducted for four times, the conditionings were conducted at intervals of 5 minutes. Smell preference was examined by placing each cricket into a test arena. The arena consisted of a “standby chamber” and a “test chamber”. […] The smell source was a plastic pot containing filter paper perfumed with essence of a smell (peppermint or vanilla) and covered with a gauze lid. In the preference test, each cricket was placed into the test chamber and allowed to walk freely for 4 minutes to search for the two smell sources. Two minutes after the start of the test, a rotary board having the smell sources was rotated to reverse the positions of the vanilla and the peppermint smells. During the test, the time the cricket spent placing its mouth to the gauze of the smell source was measured as a visiting time to the smell source, and the ratio of the visiting times of the two types of smells (PI value: preference index) was calculated according to the following formula to assess the relative preference to the mint smell. PI value=Tp/(Tp+Tv)×100 • Tp: Searching time for smell associated with the reward (peppermint) • Tv: Searching time for smell not associated with the reward (vanilla) If the preferences for the two smells are equivalent, PI will be 50. Since crickets inherently prefer vanilla smell over peppermint smell, an average PI value prior to the learning/training is usually 25-35, The preference test was conducted before and after the learning/training to examine whether preference for the smell changes due to the learning/training. […] Melatonin, 6-HM, kynurenine, kynuramine and 8br-cGMP were purchased from SIGMA Aldrich, AFMK was purchased from Cayman Chemical, AMK was purchased from Toronto Research Chemicals and CHX was purchased from Wako Pure Chemical Industries. The drugs other than 8br-cGMP and CHX were first dissolved in ethanol and then diluted with physiological saline for crickets to the respective concentrations. In the administration experiment, 3 μl was administered using a 10-μl syringe to the brain via an aperture opened through a simple eye of the head. PI values were tested before the training and a day after the training in the same group by a Wilcoxon's-test.

young crickets [2] = assay: AMK-related synthetic compounds inducing long-term memories in young crickets; format: in vivo, Gryllus bimaculatus; conditions: 3 μl of 1 μg/ml to the brain 20 minutes after single-time training
Description: Male (young) crickets about one week old following molting into their adult stage were used. Each of the crickets was placed in a 100 ml beaker three days before the experiment, and deprived of water for 2-3 days to enhance the desire of taking water. As the feed, about 10 pieces of insect feed were placed into the beaker.
In the same manner as “1.2, Olfactory associative conditioning” in Example 1, learning/training for smell and reward associative conditioning was conducted.
In the same manner as “1.3. Smell preference test” in Example 1, a test of smell preference was carried out.
As drugs, the AMK-related synthetic compounds (Compounds 1-10) synthesized in Example 2 above were used. For all of the drugs, 1 mg of the drug was initially dissolved in 100 μl of DMSO, and then diluted with physiological saline for crickets that was 10000 times the amount of the drug solution (final concentration: 1 μg/ml). In the administration experiments, 3 μl was administered to the brain via an aperture opened through a simple eye of the head using a 10-μl syringe.
Processing was conducted in the same manner as “1.5. Statistical processing” in Example 1.

young mice = assay: Object recognition test for young mice (melatonin and melatonin metabolites); format: in vivo, ICR mice; conditions: i.p. 60 minutes after one one-minute acquisition trial, test trial 24 hours later
Description: Two-month-old male ICR mice (young mice) were used. The rearing room was kept at 22° C. at cycles of 12 hours of light period/12 hours of dark period, and feed and drinking water were given freely. All of the experiments were conducted during the latter 6 hours of the light period.
Melatonin (MEL), N(1)-acetyl-N(2)-formyl-5-methoxykynuramine (AFMK), and N(1)-acetyl-5-methoxykynuramine (AMK) were used as drugs. Melatonin was purchased from SIGMA Aldrich, AFMK was purchased from Cayman Chemical, and AMK was purchased from Toronto Research Chemicals. AFMK and AMK were diluted with physiological saline and intraperitoneally administered at a dosage of 0.01 mg/kg bw, 0.1 mg/kg bw or 1.0 mg/kg bw. MEL was diluted with physiological saline containing 1 vol % ethanol, and intraperitoneally administered at a dosage of 1.0 mg/kg bw or 5.0 mg/kg bw. As controls, physiological saline or physiological saline containing 1 vol % ethanol was intraperitoneally administered.
Test was conducted in the same manner as “5.3 Object recognition test” in Example 5.
Processing was conducted in the same manner as “5.4 Statistical processing” in Example 5.

[3] = 5 μM, 20 minutes after single-time training

COc1cc2c(CCNC(C)=O)c[nH]c2cc1O [Compound 6-HM, 6-Hydroxymelatonin, reference compound]
long-term memory formation a day after the training (young crickets [1]; [3]): a long-term memory was not formed
long-term memory formation a day after the training (young crickets [1]; 5 μM, 20 minutes before single-time training): a long-term memory was not formed

N[C@@H](CCC(=O)N[C@@H](CS)C(=O)NCC(=O)O)C(=O)O [glutathione]
improvement in an age-related memory disorder (aged crickets): no improvement

COc1ccc(NC(C)=O)c(C(=O)CCNC(C)=O)c1 [Compound 13, N-[3-(2-acetylamino-5-methoxyphenyl)-3-oxopropyl]acetamide]
melting point: 143 to 145 °C

NCCC(=O)c1ccccc1N [Compound 15, 3-amino-1-(2-aminophenyl)-1-propanone]
long-term memory formation a day after the training (young crickets [1]; [3]): the long-term memories were formed

COc1ccc(N)c(C(=O)CCNC(=O)c2ccccn2)c1 [Compound 7, N-[3-(2-amino-5-methoxyphenyl)-3-oxopropyl]-2-picolinamide]
effect in inducing long-term memory compared with AMK (young crickets [2]): superior effects over AMK
melting point: 114 to 115.5 °C

COc1ccc(N)c(C(=O)CCNC(=O)c2ccc3ccccc3c2)c1 [Compound 6, N-[3-(2-amino-5-methoxyphenyl)-3-oxopropyl]-2-naphthamide]
effect in inducing long-term memory after one day (young crickets [2]): did not show significant difference with the number of individuals used this time but they showed a tendency to induce long-term memories
melting point: 113.5 to 114.5 °C

Nc1nc2c(nc(Br)n2[C@@H]2O[C@@H]3COP(=O)([O-])O[C@H]3[C@H]2O)c(=O)[nH]1.[Na+] [Compound 8br-cGMP, 8-Bromoguanoine 3′,5′-cyclic monophosphate sodium salt, reference compound]
long-term memory formation a day after the training (young crickets [1]; 200 μM, 20 minutes after single-time training): did not have the effect of inducing long-term memory
long-term memory formation a day after the training (young crickets [1]; 200 μM, 20 minutes before single-time training): confirmed

CC(=O)NCCC(=O)c1ccccc1N [Compound 9, N-[3-(2-aminophenyl)-3-oxopropyl]acetamide]
effect in inducing long-term memory compared with AMK (young crickets [2]): superior effects over AMK

COc1ccc(NC=O)c(C(=O)CCNC(C)=O)c1 [Compound 10, N-[3-(2-formylamino-5-methoxyphenyl)-3-oxopropyl]acetamide]
administration concentration sufficient to form long-term memory (young crickets [1]; 3 μl to the brain 20 minutes after single-time training): 1 µM
concentration at which the effect of inducing long-term memories was found (young mice): 1.0 mg/kg bw

CC(=O)NCCC(=O)c1cc(Cl)ccc1N [Compound 8, N-[3-(2-amino-5-chlorophenyl)-3-oxopropyl]-acetamide]
effect in inducing long-term memory after one day (young crickets [2]): did not show significant difference with the number of individuals used this time but they showed a tendency to induce long-term memories
melting point: 121 to 122 °C

Nc1ccccc1C(=O)CC(N)C(=O)O (stereo not drawn) [Compound 16, 3-[(2-aminophenyl)carbonyl]-2-aminopropionic acid]
long-term memory formation a day after the training (young crickets [1]; [3]): the long-term memories were formed

CCC(=O)NCCC(=O)c1cc(OC)ccc1N [Compound 2, N-[3-(2-amino-5-methoxyphenyl)-3-oxopropyl]-propionamide]
effect in inducing long-term memory compared with AMK (young crickets [2]): superior effects over AMK

O=C1O[C@H]([C@@H](O)CO)C(O)=C1O [vitamin C]
improvement in an age-related memory disorder (aged crickets): no improvement

COc1ccc(N)c(C(=O)CCNC(=O)c2ccccc2)c1 [Compound 3, N-[3-(2-amino-5-methoxyphenyl)-3-oxopropyl]-benzamide]
effect in inducing long-term memory compared with AMK (young crickets [2]): superior effects over AMK

COc1ccc(N)c(C(=O)CCNC(=O)c2ccccc2OC)c1 [Compound 5, N-[3-(2-amino-5-methoxyphenyl)-3-oxopropyl]-2-methoxybenzamide]
melting point: 134.5 to 136 °C
